# From patent US6984659B2, “2-pyrrolidinone derivatives substituted at position 4 for reducing the extracellular glutamate level” (priority 1997, dated 2006)
# Where “and” joins values, the source holds several entries; their conditions need not be identical. Identical values can stand only once.
# How the values were obtained:
# [1] = test system: extracellular glutamate level; assay: superfusion experiments on rat brain slices (striatum), glutamate in superfusate by HPLC; assay type: cell-based
# Procedure: A solution of gabapentin (100 μM) in physiological buffer (composition below) with a pH of 7.4 was prepared and irradiated with ultraviolet light (260 and 330 nanometers) at 37° C. for two hours. As described in Kearney A. S. et al., International Journal of Pharmaceutics, 78 (1992), 25–34, this slowly produces the lactam 8-azaspiro[5,4]decan-9-one. Because of the slow reaction rate, a yield of about 1% is assumed in accordance with Kearney et al. (1992), which corresponds to a 1 μM solution.
# The activity of this solution in reducing the extracellular glutamate level was shown by means of superfusion experiments on rat brain slices. Slices with a thickness of 350 μm from the rat striatum were used for this. In each case, two slices were employed in a superfusion chamber with an extremely small dead volume, about 100 μl. Physiological buffer (concentrations in mM: NaCl 121, KCl 1.8, CaCl2, 1.3, MgSO4 1.2, NaHCO3 25, […] 1.2, glucose 11, pH 7.4, 95% O2/5% CO2-saturated) is then passed over them at 37° C. After a preliminary perfusion, which serves in particular to remove tissue particles and amino acids released by the injury to the tissue, superfusate fractions are collected at a flow rate of 400 to 800 μl every five minutes. […] The superfusates obtained are filtered (0.45 μm pore size) and the amino acid concentrations are determined by HPLC. […]
# [2] = test system: retinal gangliocytes (neurons in the ganglion cell layer); assay type: in vivo
# Procedure: The following results were found:
# 10 rats were treated with 0.9% NaCl i.p. at the start of a unilateral one-hour intraocular pressure increase. After 6 hours, the treatment was again carried out with 0.9% NaCl i.p. After 14 days, the rats were sacrificed, and the retinal gangliocytes were investigated. Compared with the respective control eye, only 17.4% (±4%) of the retinal gangliocytes had survived.
# In the test group, likewise of 10 rats, 50 mg/kg 8-azaspiro[5,4]decan-9-one was administered i.p. at the start of a unilateral one-hour intraocular pressure increase. The compound was administered again in a dose of 50 mg/kg 6 hours after the intraocular pressure increase. After 14 days, the rats were sacrificed, and the retinal gangliocytes were investigated. It emerged that, compared with the respective control eye, 35% (±7%) of the retinal gangliocytes survived.
# The method in brief: Retinal ischemia in the left eye was induced by elevating the intraocular pressure above systolic blood pressure for one hour. Retinal ischemia was confirmed by whitening of the fundus. In the first experiment 10 rats received 50 mg/kg GBP intraperitoneally immediately prior to ischemia and 50 mg/kg 6 hours after reperfusion, 10 rats received 50 mg/kg GBP-L i.p. immediately prior to ischemia and 50 mg/kg 6 hours after reperfusion, and 10 rats received vehicle alone. Ischemic damage was histologically quantified 14 days after ischemia: Both eyes were enucleated and immersed in 4% buffered formaldehyde for 24 hours. Retinal wholemounts were made and stained with cresyl violet, (0.1%, pH 4.5 for 30 min). Ischemic damage was quantified by counting the number of neurons in the ganglion cell layer in a masked fashion. […] This control eye was not subjected to ischemia.
# Statistically, the ganglion cell numbers were evaluated as follows: In contrast to the usual ANOVA where the ratio of the mean squares between the treatment groups and the error mean square is used in the F-statistic, the nested design applied here requested another approach. Apart from the factor medication, there were three other sources of variation in our example, (1) the rat, (2) the eye, and (3) the replications of cell counting within each eye. To test for the medication effect the mean square for rat within medication has to be used as denominator. The variability of the eye is then contained in both the numerator (with all contributions to the variance) and the denominator (with the contributions to the variance except that of the factor medication). Thus, the variability of the eye is eliminated in the end and the variance of the factor medication is assessed appropriately in the F-test. The used model was: cell counts=med rat (med) eye(med*rat).
# In order to evaluate the therapeutic window of GBP-L as an antiischemic drug (Pulsinelli et al. 1997) its time-effect relationship was tested at 75 mg/kg given twice prior to or after the end of ischemia with an interval of 6 hours.
# The dose dependence of the neuroprotective effect of GBP-L was established using 25 mg/kg, 50 mg/kg and 75 mg/kg (see FIG. 7) given twice three hours and nine hours after the end of ischemia.
# [3] = test system: electrically evoked release of [^3H]-NA; assay: electrically evoked release of [^3H]-NA from rat brain slices; assay type: cell-based; conditions: quasi-physiological release
# Text: Note that the deviations indicate confidence intervals (CI95), not standard errors. In this model, GBP and its lactam seem equipotent. GBP and GBP-L are ineffective on the quasi-physiological, electrically evoked release of [^3H]-NA from both rat and human brain slices (not shown).
# [4] = test system: neuronal intranuclear inclusions; assay: mouse model of Huntington's disease, immunohistochemistry of ubiquitinated neuronal intranuclear inclusions; assay type: in vivo; conditions: for mean hippocampal areas of neuronal intranuclear inclusions / mean neocortical areas of neuronal intranuclear inclusions / mean striatal areas of neuronal intranuclear inclusions: per individual mouse, 100 mg/kg*day, frozen brain sections, 100 mg/kg
# Text: Mice transgenic for exon 1 of the human HD gene (line R 6/2), carrying CAGn=115-156 expansions, develop pronounced neuronal intranuclear inclusions, containing the proteins huntington and ubiquitin prior to the characteristic neurological phenotype with bradykinesia and seizures corresponding to the juvenile type of HD (Davies et al. 1997). The life time of these mice is up to 17 weeks. It was investigated whether gabapentin (GBP) and its derivative gabapentin-lactam (GBP-L, Jehle et al. 2000), may exert neuroprotective effects by using a battery of behavioral tests selected to measure motor aspects of fore-and hindlimb coordination and balance. In a first series of experiments mice were treated with GBP-L (100 mg/kg*day, 8 mice) and vehicle only (B mice) from the 6th week of their life until death using Alzet pumps implanted subcutaneously and delivering the test compounds systemically and continuously for up to four weeks. Empty Alzet pumps were repeatedly replaced. Animals were tested twice weekly by walking on a balance beam (width: 5 and 14 mm, Carter et al. 1999) up to week 15.5. A second series of experiments involved mice again treated with GBP-L (100 mg/kg*clay, 7 mice) and mice treated with GBP (100 mg/kg*day, 8 mice) from the 6th week of their life until death with week 17 being the maximum endpoint. In addition, immunohistochemical studies, using a monoclonal mouse antibody raised against ubiquitin, were done to analyse areas of ubiquitinated nuclear inclusions in three brain regions (hippocampus, neocortex and striatum) in a blinded fashion in order to compare mice treated with GBP-L or GBP.
# Three mice per group were evaluated. The mean regional area of neuronal intranuclear inclusions was calculated (μm^2) for each mouse. These means were compared between regions and between treatment groups.
SMILES,"difference in glutamate between treated and comparative samples ([1]; gabapentin solution (100 μM) not irradiated, no lactam)","neuroprotective effect / number of surviving neurons (in words) ([2]; 50 mg/kg i.p. immediately prior to ischemia and 6 hours after reperfusion, 14 days, listed as gabapentin)","rate of surviving neurons ([2]; 50 mg/kg i.p. twice, ganglion cell layer neurons, 14 days after ischemia, pure ischemia 17.5%) [%]",electrically evoked release of [^3H]-NA (in words) [3],mean hippocampal areas of neuronal intranuclear inclusions [4],mean neocortical areas of neuronal intranuclear inclusions [4],mean striatal areas of neuronal intranuclear inclusions [4],"extracellular glutamate concentration found in superfusate ([1]; rat striatum slices flushed with approximately 1 μM solution, control tests 0.24 μM) [µM]","retinal gangliocytes survived compared with the respective control eye ([2]; 50 mg/kg i.p. at start of one-hour intraocular pressure increase and again 6 hours after, 14 days, NaCl group 17.4%) [%]","mortality in the 14 days after the test ([2]; 50 mg/kg i.p. twice, 10 rats)","time-effect relationship: neuroprotective action maintained after recirculation ([2]; 75 mg/kg given twice prior to or after the end of ischemia, interval 6 hours, another strain of rats)","slope of regression line of dose-effect relationship ([2]; 25, 50 and 75 mg/kg given twice, three and nine hours after the end of ischemia)","area of neuronal intranuclear inclusions in hippocampus, striatum and neocortex compared to GBP mice (in words) ([4]; three mice per group)"
"NCC1(CC(=O)O)CCCCC1 [GBP, gabapentin, reference compound]",no difference could be found,no protective effect whatever,17.5,ineffective,8.78 μm^2 and 8.93 μm^2 and 8.26 μm^2,5.91 μm^2 and 5.94 μm^2 and 9.60 μm^2,6.43 μm^2 and 7.27 μm^2 and 3.84 μm^2,–,–,–,–,–,–
"O=C1CC2(CCCCC2)CN1 [GBP-L, 8-azaspiro[5,4]decan-9-one]",–,–,–,ineffective,4.47 μm^2 and 4.01 μm^2 and 3.61 μm^2,3.70 μm^2 and 2.96 μm^2 and 2.65 μm^2,3.52 μm^2 and 4.20 μm^2 and 3.83 μm^2,0.12,35,no animal died,maintained for more than three hours after recirculation,0.41,markedly and significantly reduced
